Assay results published in patent US11234437B2 (priority 2017, dated 2022).

Legend:
[1] = test system: Monographella nivalis (Microdochium nivale); test: Monographella nivalis (Microdochium nivale) / liquid culture (foot rot cereals); assay type: cell-based; conditions: compared to untreated control
Experimental: Monographella nivalis (Microdochium nivale)/Liquid Culture (Foot Rot Cereals)
(§1) Conidia of the fungus from cryogenic storage are directly mixed into nutrient broth (PDB potato dextrose broth). After placing a (DMSO) solution of test compound into a microtiter plate (96-well format), the nutrient broth containing the fungal spores is added. The test plates are incubated at 24° C. and the inhibition of growth is determined photometrically 4-5 days after application.

[2] = test system: Gibberella zeae (Fusarium graminearum); test: whole plant or invertebrate; assay type: in vivo; conditions: in Triticum aestivum, read-out: control of Gibberella zeae
[3] = test system: Gaeumannomyces graminis; test: Gaeumannomyces graminis / liquid culture (take-all of cereals); assay type: cell-based; conditions: compared to untreated control
Experimental: as §1, with “Mycelial fragments of” for “Conidia of”, “storage were” for “storage are”

[4] = test system: Magnaporthe grisea (Pyricularia oryzae); test: microbe, parasite or virus in culture; assay type: cell-based; conditions: read-out: control of Magnaporthe grisea
[5] = test system: Fusarium culmorum; test: whole plant or invertebrate; assay type: in vivo; conditions: in Triticum aestivum, read-out: control of Fusarium culmorum
[6] = test system: Sclerotinia sclerotiorum; test: Sclerotinia sclerotiorum / liquid culture (cottony rot); assay type: cell-based; conditions: compared to untreated control
Experimental: Sclerotinia sclerotiorum/Liquid Culture (Cottony Rot)
as §1, with “Mycelia fragments of a newly grown liquid culture” for “Conidia”, “fungus” for “fungus from cryogenic storage”, “(Vogels” for “(PDB potato dextrose”, “format)” for “format),”, “material” for “spores”, “3-4” for “4-5”

[7] = test system: Botryotinia fuckeliana (Botrytis cinerea); test: Botryotinia fuckeliana (Botrytis cinerea) / liquid culture (gray mould); assay type: cell-based; conditions: compared to untreated control
Experimental: Botryotinia fuckeliana (Botrytis cinerea)/Liquid Culture (Gray Mould)
as §1, with “(Vogels” for “(PDB potato dextrose”, “3-4” for “4-5”

[8] = test system: Glomerella lagenarium (Colletotrichum lagenarium); test: Glomerella lagenarium (Colletotrichum lagenarium) / liquid culture (anthracnose); assay type: cell-based; conditions: Colletotrichum orbiculare, compared to untreated control
Experimental: as §1, with “measured” for “determined”, “3-4” for “4-5”

[9] = test system: Fusarium culmorum; test: microbe, parasite or virus in culture; assay type: cell-based; conditions: read-out: control of Fusarium culmorum

Compound	inhibition of growth at 20 ppm [1] [%]	pest or weed control at 200 ppm [2] [%]	inhibition of growth at 20 ppm [3] [%]	inhibition of growth at 20 ppm [4] [%]	pest or weed control at 200 ppm [5] [%]	inhibition of growth at 20 ppm [6] [%]	inhibition of growth at 200 ppm [7] [%]	inhibition of growth at 200 ppm [8] [%]	inhibition of growth at 200 ppm [9] [%]	melting point [°C]
CC(C)(C)C[C@@](C)(Cc1ccccc1)NC(=O)c1cnc2c(F)cccc2c1 [Compound F-9, N-[(1S)-1-benzyl-1,3,3-trimethyl-butyl]-8-fluoro-quinoline-3-carboxamide]	≥ 80	≥ 80	≥ 80							
CC(C)C[C@@](C)(Cc1ccccc1)NC(=O)c1cnc2c(F)c(F)ccc2c1 [Compound F-13, N-[(1S)-1-benzyl-1,3-dimethyl-butyl]-7,8-difluoro-quinoline-3-carboxamide]		≥ 80		≥ 80	≥ 80					
Cc1cccc2cc(C(=O)N[C@@](C)(Cc3ccccc3)CC(F)(F)F)cnc12 [Compound F-17, N-[(1S)-1-benzyl-3,3,3-trifluoro-1-methyl-propyl]-8-methyl-quinoline-3-carboxamide]	≥ 80			≥ 80		≥ 80				
C[C@](Cc1ccccc1)(CC(F)(F)F)NC(=O)c1cnc2c(Cl)cccc2c1 [Compound F-19, N-[(1S)-1-benzyl-3,3,3-trifluoro-1-methyl-propyl]-8-chloro-quinoline-3-carboxamide]		≥ 80		≥ 80		≥ 80				
C[C@](Cc1ccccc1)(CC(F)(F)F)NC(=O)c1cnc2c(F)c(F)ccc2c1 [Compound F-21, N-[(1S)-1-benzyl-3,3,3-trifluoro-1-methyl-propyl]-7,8-difluoro-quinoline-3-carboxamide]				≥ 80		≥ 80				
C[C@@](Cc1ccccc1)(CC1(F)CC1)NC(=O)c1cnc2c(F)cccc2c1 [Compound F-23, N-[(1R)-1-benzyl-2-(1-fluorocyclopropyl)-1-methyl-ethyl]-8-fluoro-quinoline-3-carboxamide]	≥ 80			≥ 80	≥ 80		≥ 80	≥ 80	≥ 80	
CC1(C[C@@](C)(Cc2ccccc2)NC(=O)c2cnc3c(F)cccc3c2)CC1 [Compound F-26, N-[(1S)-1-benzyl-1-methyl-2-(1-methylcyclopropyl)ethyl]-8-fluoro-quinoline-3-carboxamide]	≥ 80			≥ 80			≥ 80	≥ 80	≥ 80	
CC(C)C[C@@](C)(Cc1cccc(F)c1)NC(=O)c1cnc2c(F)cccc2c1 [Compound F-30, 8-fluoro-N-[(1S)-1-[(3-fluorophenyl)methyl]-1,3-dimethyl-butyl]quinoline-3-carboxamide]	≥ 80			≥ 80	≥ 80		≥ 80	≥ 80	≥ 80	
CC(F)(F)C[C@](C)(Cc1ccccc1)NC(=O)c1cnc2c(F)cccc2c1 [Compound F-32, N-[(1S)-1-benzyl-3,3-difluoro-1-methyl-butyl]-8-fluoro-quinoline-3-carboxamide]		≥ 80		≥ 80		≥ 80				
C[C@@](Cc1ccccc1)(CC(F)(F)F)NC(=O)c1cnc2ccccc2c1 [Compound F-33, N-[(1R)-1-benzyl-3,3,3-trifluoro-1-methyl-propyl]quinoline-3-carboxamide]					≥ 80		≥ 80	≥ 80	≥ 80	
C=C(Cl)C[C@@](C)(Cc1ccccc1)NC(=O)c1cnc2c(F)cccc2c1 [Compound F-36]							≥ 80	≥ 80	≥ 80	
CC(C)CC(C)(Cc1ccccc1)NC(=O)c1cnc2c(F)cccc2c1 (stereo not shown) [X.002, N-(1-benzyl-1,3-dimethyl-butyl)-8-fluoro-quinoline-3-carboxamide]	≥ 80		≥ 80	≥ 80						110 to 112
CC1(CC(C)(Cc2ccccc2)NC(=O)c2cnc3c(F)cccc3c2)CC1 (stereo not shown) [X.003, N-[1-benzyl-1-methyl-2-(1-methylcyclopropyl)ethyl]-8-fluoro-quinoline-3-carboxamide]		≥ 80	≥ 80	≥ 80						126 to 129
CC(Cc1ccccc1)(CC(F)(F)F)NC(=O)c1cnc2c(F)cccc2c1 (stereo not shown) [X.006, N-(1-benzyl-3,3,3-trifluoro-1-methyl-propyl)-8-fluoro-quinoline-3-carboxamide]		≥ 80	≥ 80	≥ 80						158 to 160
CC(Cc1ccccc1)(CC(F)(F)F)NC(=O)c1cnc2c(F)c(F)ccc2c1 (stereo not shown) [X.007, N-(1-benzyl-3,3,3-trifluoro-1-methyl-propyl)-7,8-difluoro-quinoline-3-carboxamide]		≥ 80		≥ 80		≥ 80				
CC(C)CC(C)(Cc1ccccc1)NC(=O)c1cnc2c(F)c(F)ccc2c1 (stereo not shown) [X.008, N-(1-benzyl-1,3-dimethyl-butyl)-7,8-difluoro-quinoline-3-carboxamide]	≥ 80	≥ 80	≥ 80	≥ 80						114 to 116
C=C(C)CC(C)(Cc1ccccc1)NC(=O)c1cnc2c(F)cccc2c1 (stereo not shown) [X.009, N-(1-benzyl-1,3-dimethyl-but-3-enyl)-8-fluoro-quinoline-3-carboxamide]	≥ 80	≥ 80	≥ 80	≥ 80						
CC(C)CC(C)(Cc1cccc(F)c1)NC(=O)c1cnc2c(F)cccc2c1 (stereo not shown) [X.011, 8-fluoro-N-[1-[(3-fluorophenyl)methyl]-1,3-dimethyl-butyl]quinoline-3-carboxamide]	≥ 80		≥ 80	≥ 80						45 to 47
CC(Cc1cccc(F)c1)(CC(F)(F)F)NC(=O)c1cnc2c(F)cccc2c1 (stereo not shown) [X.012, 8-fluoro-N-[3,3,3-trifluoro-1-[(3-fluorophenyl)methyl]-1-methyl-propyl]quinoline-3-carboxamide]	≥ 80	≥ 80		≥ 80		≥ 80				149 to 151
CC(Cc1ccccc1)(CC1(F)CC1)NC(=O)c1cnc2c(F)cccc2c1 (stereo not shown) [X.013, N-[1-benzyl-2-(1-fluorocyclopropyl)-1-methyl-ethyl]-8-fluoro-quinoline-3-carboxamide]	≥ 80			≥ 80		≥ 80	≥ 80	≥ 80	≥ 80	119 to 121
Cc1cccc2cc(C(=O)NC(C)(Cc3ccccc3)CC(C)C)cnc12 (stereo not shown) [X.017, N-(1-benzyl-1,3-dimethyl-butyl)-8-methyl-quinoline-3-carboxamide]	≥ 80	≥ 80	≥ 80	≥ 80						132 to 133
CC(C)CC(C)(Cc1ccccc1)NC(=O)c1cnc2c(Cl)cccc2c1 (stereo not shown) [X.018, N-(1-benzyl-1,3-dimethyl-butyl)-8-chloro-quinoline-3-carboxamide]	≥ 80		≥ 80	≥ 80						147 to 148
CC(C)CC(C)(Cc1ccccc1)NC(=O)c1cnc2ccccc2c1 (stereo not shown) [X.019, N-(1-benzyl-1,3-dimethyl-butyl)quinoline-3-carboxamide]	≥ 80	≥ 80	≥ 80							121 to 123
